From patent publication US10293001B2, “Compositions and methods for restoring or rejuvenating stem/progenitor cell function” (University of Pittsburgh—Of the Commonwealth System of …, priority 2012, dated 2019)

Tests used:
Ercc1^−/− MEFs = experiment: Reversal of senescence (SA-β-gal) of Ercc1−/− MEFs; type: cell-based, mouse; conditions: within 24 hours of treatment
aged WT MDSPCs = experiment: Myogenic fusion of aged MDSPCs with IKKβ inhibition; type: cell-based, mouse; set-up: dose or concentration left out as unconfirmed; conditions: under fusion conditions
Excerpt: To determine further whether the NF-κB signaling pathway plays a role in driving age-related stem cell dysfunction, whether pharmacologic inhibition of IKK-β would restore the myogenic potential of aged WT MDSPCs was examined. […] MDSPCs were isolated from 30 month old p65^+/− and 24 month old WT mice and compared the myogenic potential of 30 month old p65^+/− MDSPCs in vitro to naturally aged WT MDSPCs. The results confirmed that MDSPCs from p65^+/− aged mice (30 month) were more myogenic than MDSPCs from 24 month old WT mice.

Ercc1^−/Δ mice = experiment: Chronic treatment with mitochondrial radical scavenger in progeroid mice; type: in vivo, mouse

O=C(c1ccc(Nc2nccc(-c3cc4ccccc4s3)n2)cc1)N1CCC(N2CCCC2)CC1 [IKKiVII]
reversing senescence of Ercc1−/− MEFs (>60% of cells SA-β gal+) (Ercc1^−/− MEFs): could be reversed

NC(=O)Nc1sc(-c2ccc(F)cc2)cc1C(N)=O [IKKβ inhibitor IV]
fusion index of aged MDSPCs (aged WT MDSPCs): significantly increased

CC(C)C[C@@H](/C=C/[C@H](Cc1ccccc1)C(=O)N1CCC[C@H]1C(=O)N[C@H](C(=O)N[C@@H](CCCNC(=O)OCc1ccccc1)C(=O)NC1CC(C)(C)N([O])C(C)(C)C1)C(C)C)NC(=O)OC(C)(C)C [XJB-5-131]
onset of aging-related degenerative changes (Ercc1^−/Δ mice): delay the onset
